From patent US20220202897A1, “USE OF CYCLO(HIS-PRO) (CHP) FOR PREVENTING, AMELIORATING, OR TREATING FIBROSIS” (NOVMETAPHARMA CO., LTD., priority 2019, published 2022)

Tests used:
[1] = system: animal model of cardiac fibrosis; experiment: Fibrosis marker gene expression (real-time PCR) in heart tissue of a high-fat-diet animal model of cardiac fibrosis; format: in vivo, C57BL/6 mice; settings: high-fat diet mice; CHP 5 and 35 mg/kg orally once a day for 16 weeks; corrected by β-actin; no further decrease with concentration; FIG. 10
Procedure: (§1) For liver fibrosis experiments in animals, 12-week-old C57BL/6 mice fed a high-fat diet containing 60% fat for 6 weeks were purchased from Jackson, USA, and Research diets D12492, a 60% fat-containing high-fat dietary feed purchased from Saeron Bio, were ingested for 17 weeks. Mice were bred to allow free access to feed and water in an environment of 24±3° C. C57BL/6 mice fed a high-fat diet for 6 weeks were acclimatized to the breeding environment for 1 week, and their weights were measured and evenly divided into 3 groups as shown in Table 1. CHP was orally administered to each group at a concentration of 5 mg/kg or 35 mg/kg once a day for 16 weeks, and the same amount of distilled water was orally administered to the control group in the same manner.
For cardiac fibrosis experiments in animals, an animal model of cardiac fibrosis was established in the same manner as in Example 4-1.
Isoflurane required for anesthesia and dissection of mice was purchased from Hana Pharmaceutical, and Vetequip's RC2 Rodent Circuit Controller Anesthesia System was prepared. Phosphate buffered saline (PBS) was purchased from Hyclone. To isolate the mouse heart tissue, the mice were anesthetized by respiratory anesthesia with 3-3.5% isoflurane. After blood was drawn from the heart of the anesthetized mice, the heart tissue was immediately excised, 50 mg of the heart was cut out, and RNA extraction and gene expression analysis were performed in the same manner as in Example 6-2. The expression value of each gene was corrected by dividing by the expression value of (β-actin, a housekeeping gene.
Statistical significance was analyzed using one-way ANOVA statistical analysis, and the Dunnett post hoc test was used to compare the significance with the HFD control group (*p<0.05, **p<0.01, ****p<0.0001).

[2] = system: animal model of fat fibrosis; experiment: Fibrosis marker gene expression (real-time PCR) in epididymal adipose tissue of a high-fat-diet animal model of fat fibrosis; format: in vivo, C57BL/6 mice; settings: high-fat diet mice; CHP 5 and 35 mg/kg orally once a day for 16 weeks; corrected by GAPDH; FIG. 11
Procedure: as §1
For fat fibrosis experiments in animals, an animal model of fat fibrosis was established in the same manner as in Example 4-1.
Isoflurane required for anesthesia and dissection of mice was purchased from Hana Pharmaceutical, and Vetequip's RC2 Rodent Circuit Controller Anesthesia System was prepared. Phosphate buffered saline (PBS) was purchased from Hyclone. To isolate the mouse adipose tissue, the mice were anesthetized by respiratory anesthesia with 3-3.5% isoflurane. After blood was drawn from the heart of the anesthetized mice, the epididymal adipose tissue (EAT) was immediately excised, 100 mg of the fat was cut out, and RNA extraction and gene expression analysis were performed in the same manner as in Example 6-2. The expression value of each gene was corrected by dividing by the expression value of GAPDH, a housekeeping gene.
Statistical significance was analyzed using one-way ANOVA statistical analysis, and the Dunnett post hoc test was used to compare the significance with the control group (*p<0.05, **p<0.01).

[3] = system: human-derived proximal tubular epithelial cells; experiment: Western blot of E-cadherin, fibronectin and pSTAT3 proteins in the human-derived proximal tubular epithelial cell fibrosis model; format: cell-based; settings: TGFβ 2 ng/ml, CHP 4, 20 and 100 μg/ml, FIG. 3
Source text: Under the same conditions as in Example 1-2, the expression levels of proteins of E-cadherin, a junction marker, fibronectin, a fibrosis marker, and pSTAT3, a fibrosis transcription factor, after CHP administration were checked by Western blot.

[4] = system: HS68 skin fibroblast-derived cell line; experiment: Fibronectin protein expression (Western blot) in a human-derived skin cell fibrosis model; format: cell-based; settings: HS68 cells; TGFβ 2 ng/ml with CHP 500 ng/ml; 48 hours; p<0.05 vs TGFβ-treated control; FIG. 9
Procedure: DMEM medium and FBS were purchased from Hyclone for culturing the HS68 skin fibroblast-derived cell line, and TGFβ for inducing fibrosis was purchased from R&D Systems. The cells were cultured in a DMEM medium supplemented with 10% FBS in a 5% CO2 incubator at 37° C., treated with TGFβ at a concentration of 2 ng/ml and treated with CHP at 0, 62.5, 125, 250, or 500 ng/ml, and cells were harvested at 48 hours of treatment.
Western blotting was performed in the same manner as in Example 3-2 to analyze the expression of fibronectin protein, a fibrotic protein. Statistical significance was analyzed using Student's t-test statistical method with the control (#p<0.05 (negative control group: TGFβ-treated control group), *p<0.05 (TGFβ-treated control group: CHP 500 ng/ml-treated group)).

[5] = system: human-derived proximal tubular epithelial cells; experiment: Cytological morphology after CHP treatment in a human-derived proximal tubular epithelial cell fibrosis model (TGFβ-induced); format: cell-based; settings: recombinant TGFβ 2 ng/ml; CHP 4, 20 and 100 μg/ml; FIG. 2
Huh7 liver cell line = experiment: Fibronectin protein expression (Western blot) in a human-derived hepatocyte fibrosis model; format: cell-based; settings: Huh7 cells; TGFβ 2 ng/ml with CHP 250 ng/ml; 48 hours; corrected by GAPDH; FIG. 5
Procedure: DMEM medium and FBS were purchased from Hyclone for culturing the Huh7 liver cell line, and TGFβ for inducing fibrosis was purchased from R&D Systems. The cells were cultured in a DMEM medium supplemented with 10% FBS in a 5% CO2 incubator at 37° C., treated with TGFβ at a concentration of 2 ng/ml and treated with CHP at 0, 62.5, 125, or 250 ng/ml, and cells were harvested at 48 hours of treatment.
RIPA lysis buffer and Halt™ protease and phosphatase inhibitor cocktails was purchased from Thermo to analyze the expression of fibronectin protein, a fibrotic protein, and for protein quantification, BCA protein quantification kit was purchased from Thermo. […] The supernatant was collected, and the protein concentration was measured by BCA quantitation, and the protein was separated from the same amount of samples using the Bolt™ protein gel electrophoresis system, and transferred to a nitrocellulose membrane. […] After washing 3 times for 10 minutes with TBST, the expression level was measured by reacting with ECL. The size of the appearing band was quantified using the ImageJ program and corrected by dividing the fibronectin band size value by the GAPDH band size value. Statistical significance was analyzed using Student's t-test statistical method with the control group. #p<0.05 (negative control group: TGFβ treated control group).

[6] = system: human-derived glomerular endothelial cells; experiment: Cytological morphology after CHP treatment in a human-derived glomerular endothelial cell fibrosis model (rTGFβ-induced); format: cell-based; settings: rTGFβ 2 ng/ml; CHP 40 and 100 μg/ml; FIG. 4
[7] = system: animal model of liver fibrosis; experiment: Fibronectin protein expression (Western blot) in liver tissue of a high-fat-diet animal model of liver fibrosis; format: in vivo, C57BL/6 mice; settings: 60% fat high-fat diet mice; CHP 5 or 35 mg/kg orally once a day for 16 weeks; vs HFD control; effect stronger according to the concentration; FIG. 6
Procedure: as §1
Isoflurane required for anesthesia and dissection of mice was purchased from Hana Pharmaceutical, and Vetequip's RC2 Rodent Circuit Controller Anesthesia System was prepared. Phosphate buffered saline (PBS) was purchased from Hyclone. To isolate the mouse liver tissue, the mice were anesthetized by respiratory anesthesia with 3-3.5% isoflurane. After blood was drawn from the heart of anesthetized mice, the liver tissue was immediately excised and washed with PBS. […] Statistical significance was analyzed using the Student's t-test statistical method with HFD control group (*p<0.05, **p<0.01).

L-132 lung cell line = experiment: Fibronectin protein expression (Western blot) in a human-derived lung cell fibrosis model; format: cell-based; settings: L-132 cells; TGFβ 2 ng/ml with CHP 125 ng/ml; 48 hours; p<0.01 vs TGFβ-treated control; FIG. 7
Procedure: MEM medium and FBS were purchased from Hyclone for culturing the L-132 lung cell line, and TGFβ for inducing fibrosis was purchased from R&D Systems. The cells were cultured in a MEM medium supplemented with 10% FBS in a 5% CO2 incubator at 37° C., treated with TGFβ at a concentration of 2 ng/ml and treated with CHP at 0, 62.5, or 125 ng/ml, and cells were harvested at 48 hours of treatment.
Western blotting was performed in the same manner as in Example 3-2 to analyze the expression of fibronectin protein, a fibrotic protein. Statistical significance was analyzed using Student's t-test statistical method with the control (#p<0.05 (negative control group: TGFβ-treated control group), **p<0.01 (TGFβ-treated control group: CHP 125 ng/ml-treated group)).

[8] = system: animal model of pulmonary fibrosis; experiment: TGFβ and Collagen 3 gene expression (real-time PCR) in lung tissue of a high-fat-diet animal model of pulmonary fibrosis; format: in vivo, C57BL/6 mice; settings: high-fat diet mice; CHP 5 and 35 mg/kg orally once a day for 16 weeks; corrected by GAPDH; FIG. 8

O=C1N[C@@H](Cc2cnc[nH]2)C(=O)N2CCC[C@@H]12 [CHP, Cyclo-HisPro]
expression of Collagen 1 gene in heart [1]: significantly reduced
expression of Collagen 3 gene in heart [1]: significantly reduced
expression of Collagen 4 gene in heart [1]: significantly reduced
expression of Fibronectin gene in heart [1]: significantly reduced
expression of TGFβ gene in heart [1]: significantly reduced
expression of CTGF gene in fat (epididymal adipose tissue) [2]: markedly reduced
expression of Collagen 3 gene in fat (epididymal adipose tissue) [2]: markedly reduced
expression of Fibronectin gene in fat (epididymal adipose tissue) [2]: markedly reduced
expression of TGFβ gene in fat (epididymal adipose tissue) [2]: markedly reduced
protein expression of E-cadherin (junction marker) [3]: restored
protein expression of fibronectin (fibrosis marker) [3]: decreased
protein expression of pSTAT3 (fibrosis transcription factor) [3]: decreased
expression level of fibronectin protein [4]: significantly decreased
cytomorphological fibrosis (cytoskeletal remodeling and morphological changes) [5]: fibrosis was improved
expression level of fibronectin protein (Huh7 liver cell line): showed a tendency to decrease
cytomorphological fibrosis (cytoskeletal remodeling and morphological changes) [6]: fibrosis was improved
expression level of fibronectin protein in liver tissue [7]: significantly decreased
expression level of fibronectin protein (L-132 lung cell line): significantly decreased
expression of Collagen 3 gene in lung [8]: decreased more significantly according to the CHP administration concentration
expression of TGFβ gene in lung [8]: decreased more significantly according to the CHP administration concentration
